Tested on: 6-OHDA-lesioned juvenile rats
Assay: Locomotor activity of juvenile rats with neonatal 6-OHDA lesions (model of ADHD)
Assay type: in vivo, rat
Protocol: The behavioral effects of (1R,5S)-(+)-1-(naphthalen-2-yl)-3-azabicyclo[3.1.0]hexane were evaluated in a model of ADHD, which can be simulated in juvenile rates with neonatal 6-hydroxydopamine (6-OHDA) lesions (Davids et al., 2003). In this animal model, the NE neurons are protected from the neurotoxic effects of 6-OHDA by pretreatment with the NE transporter inhibitor desipramine, so the NE system is largely intact and can respond to NE transporter inhibitors (Davids et al., 2002). Furthermore, the 6-OHDA lesions produce learning and memory deficits in learning models including the T maze, and active and passive avoidance tasks (Shaywitz et al., 1978; Wool et al., 1987; Takasuna and Iwasaki, 1996). Performance in these learning and memory models was improved by administration of stimulants (Shaywitz et al., 1978; Wool et al., 1987). Thus, this model incorporates both hyperactivity and learning deficits found in ADHD.
Methods of lesioning neonatal rats with 6-OHDA were carried out as detailed in Zhang et al. (2001). Briefly, on postnatal day 1 (PD 1), male Sprague-Dawley rat pups were randomly assigned to a nursing dam (10/dam). On PD 5, pups receive a subcutaneous injection of 25 mg/kg desipramine hydrochloride to protect noradrenergic neurons, followed in 45 min. by randomly assigned intracisternal injection of vehicle or 6-OHDA hydrobromide (100 μg free base) under hypothermic anesthesia. Pups were returned to nursing dams immediately after the intracranial injections. Locomotor activity was monitored individually for 90 min. in the periadolescent period on PD 25, using a microcomputer controlled infrared photobeam activity monitoring system. Locomotor activity was defined as breaking of consecutive photobeams and the activity accumulated in 5 minute bins. Behavioral testing was conducted in a novel environment (transparent plastic cages containing fresh bedding) within a grid of horizontal infrared beams. Each dose of (1R,5S)-(+)-1-(naphthalen-2-yl)-3-azabicyclo[3.1.0]hexane (1, 3 and 10 mg/kg) or methylphenidate (3 mg/kg) was dissolved in saline and given i.p. immediately prior to testing. The effects of sham versus 6-OHDA lesions on dopamine neurons in rats were quantified as decrements of DA transporters labeled with [31-1]2-(3-carbomethoxy-3-β-[4′-iodophenyl]tropane ([^3H]β-CIT), a selective DA transporter radioligand (Kula et al. 1999). Sections were preincubated (60 min., room temp [RT]) in 50 mM Tris-HCl buffer (pH 7.7) containing 120 mM NaCl and 4 mM MgCl2, then in fresh buffer (60 min) containing 2 nM [3H](3-CIT. Nonspecific binding was defined with 1 μM GBR-12909. Slides were then washed (2×5 min) in ice-cold buffer, dipped in ice-cold water, and air-dried. Radiolabeled slides and calibrated [^3H]standards were exposed to [^3H]sensitive films for 10-14 d at 4° C. Tritium-sensitive Hyperfilms were developed and fixed in Kodak D-19 for 5 min. at RT. Images were quantified with a computer-controlled MCID image analyzer. Brain regions of interest were outlined and their optical density was measured with two sections representing total binding, with two samples representing nonspecific binding. Optical density of sampled regions was measured and the amount of ligand bound within each area was calculated as nCi/mg tissue. Mean values of non-specific binding in each region were subtracted from the mean total binding to determine specific binding, which was converted into fmol/mg of radioligand bound.

For `c1ccc2cc([C@]34CNC[C@H]3C4)ccc2c1` [(1R,5S)-(+)-1-(naphthalen-2-yl)-3-azabicyclo[3.1.0]hexane], which “time over which locomotor activity was significantly reduced” value (1 mg/kg i.p., PD 25, 90 min test, vs saline) is on record?
The value was 35 min.

What about the “time over which locomotor hyperactivity was significantly attenuated” value (3 mg/kg i.p., PD 25, 90 min test) of the same compound?
Its value is 45 min.

What about the “time over which locomotor activity was significantly reduced” value (10 mg/kg i.p., PD 25, 90 min test) of the same compound?
Its value is 90 min.

And the “effect on locomotor hyperactivity” value (1, 3 and 10 mg/kg i.p.)?
Its value is “dose-dependently inhibited the locomotor hyperactivity”.

What about the “locomotor activity (FIGS. 7A and 7B)” value (6-OHDA-lesioned juvenile rats at PD25, p<0.05 versus vehicle) of the same compound?
Its value is “reduced locomotor activity”.

— US12042481B2, “Use of (1R,5S)-(+)-1-(naphthalen-2-yl)-3-azabicyclo[3.1.0]hexane in the treatment of conditions affected by monoamine neurotransmitters” (priority 2011, dated 2024)
